# Experimental data as given in PubChem BioAssay (NCI).
# Where “and” joins values, the source holds several entries; their conditions need not be identical. Equal values may be shown once.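 Five compound concentrations were applied to cells in 96-well plates for 48 hours; endpoints were derived by simple linear interpolation of the resulting dose-response curve. GI50: concentration for 50% inhibition of growth. TGI marks complete inhibition of growth.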
# What was measured:
# Assay in all cases: NCI tumour cell line growth inhibition, 48 h
# DLD-1 colon = tested on: DLD-1 colon
# M19-MEL melanoma = tested on: M19-MEL melanoma
# BT-549 breast = tested on: BT-549 breast
# DU-145 prostate = tested on: DU-145 prostate
# HS 578T breast = tested on: HS 578T breast
# MCF7 breast = tested on: MCF7 breast
# MDA-MB-231 breast = tested on: MDA-MB-231 breast
# MDA-N = tested on: MDA-N
# P388 leukemia = tested on: P388 leukemia
# P388/ADR leukemia = tested on: P388/ADR leukemia
# SN12K1 renal = tested on: SN12K1 renal
compound,measurement,setting,value
O=C1c2cccc3cc([N+](=O)[O-])cc(c23)C(=O)N1NC1=NCCN1,TGI,DLD-1 colon,> 100 µM
same,TGI,M19-MEL melanoma,> 100 µM
CC(C)N(C(=O)C12C3C4C5C3C1(C(=O)N(C(C)C)C(C)C)C5(C#N)C42)C(C)C (stereo unspecified),TGI,DLD-1 colon,66.5 µM
same,TGI,M19-MEL melanoma,> 100 µM
Nc1ncnc2c1ncn2C1OC(CSC(F)(F)F)C(O)C1O (stereo unspecified),TGI,DLD-1 colon,> 100 µM
same,TGI,M19-MEL melanoma,> 100 µM
CC1(C)OC(=O)[C@@](C)([C@H](O)c2ccccc2)O1,TGI,DLD-1 colon,> 100 µM
same,TGI,M19-MEL melanoma,> 100 µM
Cc1ccc(C2CC(c3ccc([N+](=O)[O-])cc3)=Nc3ccccc3S2)cc1 (stereo unspecified),TGI,DLD-1 colon,85.5 µM
same,TGI,M19-MEL melanoma,45 µM
N=CCCN(CCC=N)c1ccc(/C=C2\CN(NC(=O)c3ccc(Cl)cc3)C(c3ccccc3)=N2)cc1,TGI,DLD-1 colon,> 100 µM
N#CCCN(CCC#N)C(=O)c1cccc(C(=O)N(CCC#N)CCC#N)c1,TGI,DLD-1 colon,> 100 µM
same,TGI,M19-MEL melanoma,> 100 µM
C=C[C@@]1(C)CCC2(O)C(CCC3C2(C)CCC[C@@]3(C)COC(=O)CC(=O)OC)C1 (stereo partly specified),TGI,DLD-1 colon,32.1 µM
[C-]#[O+].[Cl][Sn]([Cl])[Cl].[Cl][Sn]([Cl])[Cl].[Pt].c1ccc([PH+](c2ccccc2)c2ccccc2)cc1.c1ccc([PH+](c2ccccc2)c2ccccc2)cc1,GI50,DLD-1 colon,45.5 µM
same,TGI,DLD-1 colon,> 100 µM
same,GI50,M19-MEL melanoma,41 µM
same,TGI,M19-MEL melanoma,> 100 µM
CC1=CCC2(C#N)CCC1C2O (stereo unspecified),TGI,DLD-1 colon,> 100 µM
same,TGI,M19-MEL melanoma,> 100 µM
O=C(CC(=O)C(=O)Nc1ccccc1)CC(c1ccccc1)c1c(O)c2ccccc2oc1=O (stereo unspecified),TGI,DLD-1 colon,> 100 µM
same,TGI,M19-MEL melanoma,> 100 µM
Cc1nc2ccccc2c(=O)n1/N=C(\N=Nc1cc(Cl)ccc1Cl)c1cccc(-c2ccco2)c1,TGI,DLD-1 colon,> 100 µM
same,TGI,M19-MEL melanoma,> 100 µM
O=C(c1ccccc1)C(c1ccccc1)C1(O)C(=O)Nc2ccccc21 (stereo unspecified),TGI,DLD-1 colon,> 100 µM
same,TGI,M19-MEL melanoma,> 100 µM
C/C=C(\C)c1cc(=O)c2c(C)cc3c(c2o1)C(=O)c1c(O)c(C2CC(C)(N(C)C)C(O)C(C)O2)cc(C2CC(N(C)C)C(O)C(C)O2)c1C3=O (stereo unspecified),TGI,BT-549 breast,0.735 µM
same,TGI,DLD-1 colon,> 35.2 µM
same,TGI,DU-145 prostate,5.75 µM
same,TGI,HS 578T breast,0.517 µM
same,TGI,M19-MEL melanoma,16.1 µM
same,TGI,MCF7 breast,14.5 µM and 8.8 µM
same,TGI,MDA-MB-231 breast,0.764 µM
same,TGI,MDA-N,0.46 µM
same,TGI,P388 leukemia,5.36 µM
same,TGI,P388/ADR leukemia,67.9 µM
same,TGI,SN12K1 renal,2.52 µM
COc1ccc(C2=Nc3ccccc3SC(C)C2)cc1 (stereo unspecified),TGI,DLD-1 colon,> 100 µM
same,TGI,M19-MEL melanoma,> 100 µM
CNC(=S)N/N=C1\CC(c2ccccc2)Oc2ccccc21 (stereo unspecified),TGI,DLD-1 colon,> 100 µM
same,TGI,M19-MEL melanoma,> 100 µM
CC1(C)C(c2ccccc2)=NN(O)c2ccccc21,TGI,DLD-1 colon,> 100 µM
same,TGI,M19-MEL melanoma,> 100 µM
COc1c(C2=NC(C(C)C)CO2)ccc2ccccc12 (stereo unspecified),TGI,DLD-1 colon,> 100 µM
same,TGI,M19-MEL melanoma,> 100 µM
NC(C/[N+]([O-])=N/O)C(=O)O (stereo unspecified),GI50,BT-549 breast,4.46 µM and 9.57 µM and 9.78 µM
same,TGI,BT-549 breast,> 500 µM
same,TGI,DLD-1 colon,> 500 µM
same,GI50,DU-145 prostate,173 µM
same,TGI,DU-145 prostate,> 500 µM
same,TGI,HS 578T breast,> 225 µM
same,TGI,M19-MEL melanoma,> 373 µM
same,GI50,MCF7 breast,1.2 µM and 4.17 µM and 1.15 µM
same,TGI,MCF7 breast,> 100 µM and 295 µM
same,TGI,MDA-MB-231 breast,> 500 µM
same,TGI,MDA-N,> 500 µM
same,TGI,P388 leukemia,337 µM
same,TGI,P388/ADR leukemia,336 µM
same,TGI,SN12K1 renal,257 µM
O=C(C/C(=N\NC(=O)C[n+]1ccccc1)C(=O)Nc1nc2ccc([N+](=O)[O-])cc2s1)CC(c1ccccc1)c1c(O)c2ccccc2oc1=O (stereo unspecified),TGI,DLD-1 colon,> 100 µM
same,TGI,M19-MEL melanoma,> 100 µM
CCCN(CCCN)/[N+]([O-])=N\O,TGI,DLD-1 colon,> 100 µM
same,TGI,M19-MEL melanoma,> 100 µM
O=C(CC(=O)c1ccc([N+](=O)[O-])cc1)C(=O)Nc1nccs1,TGI,DLD-1 colon,> 100 µM
C[C@@H](C1CCC2C3C(=CC(=O)[C@@]21C)[C@H](C)[C@]1(CCC(=O)O1)C1OC31)[C@H]1C[C@]2(C)O[C@@](C)(O1)OC2(C)C (stereo partly specified),TGI,DLD-1 colon,> 100 µM
same,TGI,M19-MEL melanoma,> 100 µM
O=S1CSCS1 (stereo unspecified),TGI,DLD-1 colon,> 100 µM
same,TGI,M19-MEL melanoma,> 100 µM
CC(=O)OCCOCNC(=S)N/N=C/c1ccc2ccccc2n1,TGI,DLD-1 colon,> 100 µM
same,TGI,M19-MEL melanoma,> 100 µM
CC1(C)C(c2ccccc2)C12CCC1(C2=O)C(c2ccccc2)C1(C)C (stereo unspecified),TGI,M19-MEL melanoma,58.9 µM
COc1cc(=O)oc(/C=C/C=O)c1C,TGI,DLD-1 colon,34.3 µM
same,TGI,M19-MEL melanoma,35.7 µM
Cc1ccc(NC(=O)CC/C(CC(=O)C(C)(C)C)=N/NC(=O)C(N)=O)cc1C,TGI,DLD-1 colon,> 100 µM
same,TGI,M19-MEL melanoma,> 100 µM
COC1C(O)C(C)OC(OC2C(Oc3cccc4c(O)c5c(=O)oc6ccc(C)c7c(=O)oc(c34)c5c67)OC(C)C3O[C@H](c4ccccc4)OC32)C1O (stereo partly specified),GI50,BT-549 breast,0.685 µM and 1.5 µM
same,TGI,BT-549 breast,6.27 µM
same,TGI,DLD-1 colon,8.67 µM
same,GI50,DU-145 prostate,0.484 µM
same,TGI,DU-145 prostate,3.19 µM
same,TGI,HS 578T breast,17.9 µM
same,TGI,M19-MEL melanoma,3.56 µM
same,GI50,MCF7 breast,0.225 µM
same,TGI,MCF7 breast,4.12 µM
same,GI50,MDA-MB-231 breast,0.455 µM
same,TGI,MDA-MB-231 breast,7.78 µM
same,GI50,MDA-N,0.327 µM
same,TGI,MDA-N,10.4 µM
CC1(C)CCC[C@@]2(C)C1C[C@H](O)[C@@]1(C)O[C@@](C)([C@H](O)CO)CCC21 (stereo partly specified),TGI,M19-MEL melanoma,> 100 µM
CC(=O)Nc1ccc(-c2c3nc(c(-c4cc5ccccc5[n+](C)c4)c4ccc([nH]4)c(-c4ccc(NC(C)=O)cc4)c4nc(c(-c5cc6ccccc6[n+](C)c5)c5ccc2[nH]5)C=C4)C=C3)cc1,GI50,BT-549 breast,17 µM
same,TGI,BT-549 breast,> 50 µM
same,GI50,DU-145 prostate,5.93 µM
same,TGI,DU-145 prostate,17.1 µM
same,GI50,HS 578T breast,22.9 µM
same,TGI,HS 578T breast,> 50 µM
same,GI50,MCF7 breast,34.3 µM
same,TGI,MCF7 breast,> 50 µM
same,GI50,MDA-MB-231 breast,8.1 µM
same,TGI,MDA-MB-231 breast,29.7 µM
same,GI50,MDA-N,11.2 µM
same,TGI,MDA-N,36.7 µM
Cc1cc(=O)n(-c2ccccc2)c(=O)o1,TGI,DLD-1 colon,> 100 µM
same,TGI,M19-MEL melanoma,> 100 µM
CCC1=C(C)/C(=C/c2[nH]c(C(Br)Br)c(CC)c2C)N=C1C(Br)Br,TGI,DLD-1 colon,> 100 µM
same,TGI,M19-MEL melanoma,79.1 µM
O=C1c2ccccc2NC(c2cc(Cl)cc(Cl)c2O)N1CCc1ccccn1 (stereo unspecified),TGI,BT-549 breast,> 100 µM
same,TGI,DU-145 prostate,> 100 µM
same,TGI,HS 578T breast,> 100 µM
same,TGI,MCF7 breast,> 100 µM
same,TGI,MDA-MB-231 breast,> 100 µM
same,TGI,MDA-N,> 100 µM
O=C(CCN1CCOCC1)Nc1ccc(F)cc1F,TGI,BT-549 breast,> 100 µM
same,TGI,DU-145 prostate,> 100 µM
same,TGI,HS 578T breast,> 100 µM
same,TGI,MCF7 breast,> 100 µM
same,TGI,MDA-MB-231 breast,> 100 µM
same,TGI,MDA-N,> 100 µM
COC(=O)CCC(C)[C@H]1CCC2C3C(C[C@H](OC(C)=O)[C@@]21C)[C@@]1(C)CCC2(C[C@H]1C[C@H]3OC(C)=O)OOC1(CCC(C)CC1)OO2 (stereo partly specified),GI50,BT-549 breast,6.42 µM and 57 µM
same,TGI,BT-549 breast,> 100 µM
same,GI50,DU-145 prostate,> 100 µM and 27.8 µM
same,TGI,DU-145 prostate,> 100 µM
same,GI50,HS 578T breast,2.01 µM and 9.68 µM
same,TGI,HS 578T breast,41.6 µM and 70.7 µM
same,GI50,MCF7 breast,5.62 µM and 38.4 µM
same,TGI,MCF7 breast,> 100 µM
same,TGI,MDA-MB-231 breast,> 100 µM
same,TGI,MDA-N,> 100 µM
N#CNC(N)=NCCO,TGI,DLD-1 colon,> 100 µM
same,TGI,M19-MEL melanoma,> 100 µM
Clc1ccccc1C(n1ncc2ccccc21)n1ncc2ccccc21,TGI,DLD-1 colon,> 100 µM
same,TGI,M19-MEL melanoma,> 100 µM
CC(N=C(N)N)C(=O)O (stereo unspecified),TGI,BT-549 breast,> 100 µM
same,TGI,DU-145 prostate,> 100 µM
same,TGI,HS 578T breast,> 100 µM
same,TGI,MCF7 breast,> 100 µM
same,TGI,MDA-MB-231 breast,> 100 µM
same,TGI,MDA-N,> 100 µM
NC(N)=NS(=O)(=O)c1ccc(Nc2c3ccccc3nc3c(C(=O)N4CCN(CCO)CC4)cccc23)cc1,TGI,DLD-1 colon,> 100 µM
same,TGI,M19-MEL melanoma,> 100 µM
CCOC(=O)c1cc(/C=C/C(C)=C/C(=O)OC)oc1-c1ccccc1,TGI,DLD-1 colon,> 100 µM
same,TGI,M19-MEL melanoma,> 100 µM
COC(=O)[C@H]1[C@H]2C[C@@H]3c4[nH]c5cc(OC)ccc5c4CCN3C[C@H]2C[C@@H](OC(=O)c2cc(OC)c(OC)c(OC)c2)[C@@H]1OC,TGI,DLD-1 colon,> 100 µM
same,TGI,M19-MEL melanoma,50 µM
O=C(Cc1nc2ccccc2c(=O)n1-c1c(Cl)cccc1Cl)c1ccncc1,TGI,DLD-1 colon,> 100 µM
same,TGI,M19-MEL melanoma,39.6 µM
[N-]=[N+]=Nc1ccc(CCN2CCN(c3cccc(C(F)(F)F)c3)CC2)cc1I,TGI,M19-MEL melanoma,> 100 µM
CC(C)(C)N/N=C(\Cc1occc(=O)c1O)C(=O)Nc1ccc([N+](=O)[O-])cc1[N+](=O)[O-],TGI,M19-MEL melanoma,> 100 µM
O=C1c2ccccc2C(=O)C2C1C1C(=O)c3ccccc3C(=O)C21 (stereo unspecified),TGI,DLD-1 colon,> 100 µM
same,TGI,M19-MEL melanoma,> 100 µM
Cc1c(C(=O)CC(=O)C(=O)Nc2c(C(C)C)cccc2C(C)C)[n+](=O)c2ccccc2n1[O-],TGI,M19-MEL melanoma,4.87 µM
COc1cc([N+](=O)[O-])c(S(=O)(=O)O)cc1NS(=O)(=O)c1ccc(C)cc1,TGI,BT-549 breast,> 100 µM
same,TGI,DU-145 prostate,> 100 µM
same,TGI,HS 578T breast,> 100 µM
same,TGI,MCF7 breast,> 100 µM
same,TGI,MDA-MB-231 breast,> 100 µM
same,TGI,MDA-N,> 100 µM
